Legend:
[1] = system: telomerase activity of 293T cell extracts; assay: in vitro test of telomerase activity inhibition using cisplatinum (TRAP assay, telomeric probe); format: biochemical; settings: 293T cell extracts and telomere probe treated in vitro with cisplatinum; rising amounts of peptide
Experimental: This description for the first time describes use of the previously described peptide GSE 24.2 in an in vitro test of telomerase activity inhibition using cisplatinum with cell extracts from 293T cells and a telomere probe treated with cisplatinum. […] Additionally, the possible bond of the peptide GSE24-2 to the telomere sequence was analysed using gel shift tests, with an oligonucleotide that forms a loop (TEL1) which reconstructs the double chain sequence of the telomere with a small 3′ hanging sequence^41.
Production and purification of the peptide GSE24-2: The DH5α cells of E. coli were transformed with the vector pGATEV GSE24-2 and the lysates were prepared as described previously^33. The fusion protein was purified with glutathione-sepharose and the purity was analysed by means of gel electrophoresis. The GSE24-2 was obtained following digestion with the protease TEV following the manufacturer's instructions. Routinely, 90% was obtained of the digested protein according to what was obtained in SDS-PAGE electrophoresis. The protein was passed twice through a Hi-Trap Ni-NTA column in order to discard polyhistidine tails, undigested protein, TEV protease, and impurities.
Telomere repeat amplification protocol (TRAP). Telomerase activity was measured using the TRAPeze^37 telomerase detection kit (Intergen, Purchase, USA) following the manufacturer's instructions. […]

hTR promoter = assay: hTR-luc reporter, 293T cells; format: cell-based, human; settings: luciferase 24 h after transfection
Experimental: Also, cisplatinum stimulates the promoter's activity in GSE24-2 cells more than in the control cells (FIG. 2B). […] No effect was observed of the expression of GSE24-2 on the promoter hTR^9 using cells expressing DKC or GSE24-2 (FIG. 2C).
Transfection and analysis of gene expression. The 293T cells were transfected transiently using the calcium phosphate method, as described previously^39. The total amount of DNA was maintained constant at 10 μg per million cells. The X-DC cells were transfected transiently by electroporation with 3 μg of pLNCX-GSE24-2 per million cells. The cells VA13 MEFs were transfected with […] of DNA/per million cells using lipofectamine plus (Invitrogen), following the manufacturer's instructions. The protein extracts were prepared and luciferase measured using a commercial kit (Promega). Each test was carried out in triplicate and the experiments were repeated three times. The efficiency of transfection was corrected by co-transfection of the plasmid p-CMV-Renilla.

Molecule	telomerase activity of extracts under inhibition by cisplatinum [1]	activity of the hTR promoter (hTR promoter)
peptide GSE24-2: purified peptide GSE24-2 (SEQ ID NO2), fragment of dyskerin, produced in E. coli as fusion protein and cleaved with TEV protease (GFINLDKPSNPSSHEVVAWIRRILRVEKTGHSGTLDPKVTGCLIVCIERATRLVK; listed as Homo sapiens)	protect the telomerase activity of the extracts	–
O=C1c2ccccc2-c2n[nH]c3cccc1c23 [SP60125]	–	capable of activating the activity of this promoter
